In patent US20080072640A1, “Insecticidal Fertilizer Solids and Method of Preparation” (priority 2006, published 2008):

Experiment: Solubility of imidacloprid in organic solvents
Assay type: physicochemical
Text: U.S. Pat. No. 5,783,203 mentions acetone as a solvent for imidacloprid. […] Using a 6 wt % solution imidacloprid in acetone would mean applying 1.67 wt % of the solution on the fertilizer based on the combined weight of the fertilizer and the solution to achieve a product with 0.10 wt % imidacloprid. This would be very difficult to achieve a dry product. Fertilizer products with 0.2 wt % and 0.5 wt % imidacloprid would require 3.33 wt % and 8.33 wt % respectively of the imidacloprid solution absorbed onto the fertilizer; concentrations which are not likely feasible in acetone. In addition, acetone is highly flammable which would make processing very difficult and expensive.
Preferably, the solvent system for use in the present invention consists essentially of either N-methyl-2-pyrrolidone or DMSO. […] Amine-stabilized or caustic-stabilized N-vinyl-pyrrolidone can form a solution with imidacloprid in an amount of about 15 wt % at 25° C. […] The solvent system can consist essentially of N-methyl-2-pyrrolidone, DMSO or a mixture of either N-methyl-2-pyrrolidone or DMSO with one or more co-solvents.
An imidacloprid solution was prepared by dissolving imidacloprid in dimethyl sulfoxide (DMSO). […] The resulting solution can be sprayed onto a particulate fertilizer in an amount to provide a dry particulate composition containing about 0.1 wt % imidacloprid.
The solubility of imidacloprid TGAI in N-methyl-2-pyrrolidone (NMP) was investigated. NMP has a favorable flash point of 187° F. (closed cup), mild odor, and is slow to volatilize, which are all very favorable properties. […] A 30 wt % solution can easily be prepared to spray onto fertilizer solids. Spraying a 0.50 wt % solution on fertilizer would achieve 0.15 wt % active ingredient. Spraying a 0.67 wt % solution and 1.67% wt % solution would achieve 0.20 wt % and 0.50 wt % active ingredient, respectively. These are highly plausible concentrations for use.

## O=[N+]([O-])NC1=NCCN1Cc1ccc(Cl)nc1 [imidacloprid, 1-((6-chloro-3-pyridinyl)methyl)-N-nitro-2-imidazolidinimine]
Solvent N-methyl-2-pyrrolidone (NMP), room temperature
  solubility of imidacloprid in NMP: ~35 wt %
Solvent N-methyl-2-pyrrolidone, 25° C.
  solubility of imidacloprid in N-methyl-2-pyrrolidone: about 32 wt %
Solvent acetone
  solubility of imidacloprid in acetone: less than 7 wt %
Solvent amine-stabilized or caustic-stabilized N-vinyl-pyrrolidone, 25° C.
  solubility of imidacloprid in N-vinyl-pyrrolidone: about 15 wt %
Solvent dimethyl sulfoxide, room temperature of about 23° C.
  solubility of imidacloprid in DMSO: about 32 wt %
